Source: patent US5066652A, “Thiomethyl and sulfinylmethyl derivatives having gastric acid antisectetory activity and pharmaceutical compositions containing them” (Chiesi Farmaceutici S.p.A., priority 1988, dated 1991)
Read-outs that look alike come from different tables or passages of the source.

Test system: secretion of hydrochloric acid in the stomach (Shay ulcers)
Experiment: Antisecretory activity - Shay ulcers (pylorus-ligated rat)
Assay type: in vivo
Settings: for Emax / ED40: Rattus norvegicus; for Emax / ED50 / ED40: 2 h; for Emax: α=1 represents 100% inhibition of gastric acid hypersecretion, read-out: α (approximate value of intrinsic activity); for ED50: rat, pylorus ligation, intraduodenal or intravenous; for PR (potency ratio in comparison with Omeprazole): ratio of mean ED50 on the 3 parameters of test compound to mean ED50 of omeprazole; for ED40: footnote 1: ED40 value
Procedure: Antisecretory activity--Shay ulcers The gastric secretory inhibitory activity of the compounds of general formula (I) was determined in case of hypersecretion induced in the rat by ligation of gastroduodenal junction according to the procedure described by Shay (Shay H. et al, Gasgroenterology 5, 43-61, 1945). […] Thereafter, they were fasted for 24 hours, with water ad libitum, which period was sufficient to assure a good gastric emptying, then laparectomized under light ether anesthesia, so as to allow to effect a pylorus ligation as closer as possible to the gastroduodenal junction. Two hours after the ligation, the animals were killed by means of an ether excess and stomaches were removed. Gastric contents were recovered, after filtration through a gauze, and placed in graduated test-tubes and centrifuged at 3000×g for 15 minutes. The following parameters were evaluated on the surnatant: volume (ml); pH; free acidity by conversion of pH into H^+ μEq by means of Moore table (Ann. New York Acad. Sci. 1967, 866-874); titrable acidity, by titration of an amount with 0.02N NaOH, using phenolphtalein as the indicator. […] The results were expressed as percent inhibition of hypersecretion induced by pylorus ligation in the control rats. The obtained results are reported in table 3 as: ED50 (μmol/kg) calculated on the basis of the equation of the linear tract of does-effect curves obtained with the test compounds on volume, free and titrable acidities; […]

[1] = free acid output, read-out: ED50 free acid output
[2] = secretion volume, read-out: ED50 volume
[3] = titratable acid output, read-out: ED50 titratable acid output

Row | Compound | Emax | ED50 [1] | ED50 [2] | ED50 [3] | PR (potency ratio in comparison with Omeprazole) | ED40 (free acid output, read-out: ED40 free acid output) | ED40 (secretion volume, read-out: ED40 volume) | ED40 (titratable acid output, read-out: ED40 titratable acid output)
1 | Cn1ccnc1SCc1nc2ccccc2[nH]1 [IX, 1-methyl-2-(2'-benzimidazolylmethylthio)imidazole.2HCl] | 40 to 60% | 53.2 µmol/kg | 65 µmol/kg | 24.7 µmol/kg | 17,2 | – | – | –
2 | CN(C)c1ccccc1CSc1nc2cnccc2[nH]1 [L, 2-[2'-(N,N-dimethylanilyl)methylthio]imidazo-[4,5-c]-pyridine] | 100% | 5.5 µmol/kg | 19.7 µmol/kg | 6.9 µmol/kg | 3,8 | – | – | –
3 | CN(C)c1ccccc1CSc1nc2cscc2[nH]1 [LII, 2-[2'-(N,N-dimethylanilyl)methylthio)thieno-[3,4-d]-imidazole] | 50 to 80% | 45 µmol/kg | 90 µmol/kg | 28 µmol/kg | 19,6 | – | – | –
4 | COc1c(C)cnc(CSc2nccn2C)c1C [VIII, 1-methyl-2-[2'-(3' ,5 '-dimethyl-4'-methoxypyridyl)methylthio]imidazole.2HCl] | 40 to 60% | – | – | – | 0,02 | 0.03 µmol/kg | 0.12 µmol/kg | 0.03 µmol/kg
5 | Cn1ccnc1SCc1ccc2ccccc2n1 [XII, 1-methyl-2-(2'-quinolylmethylthio)imidazole.2HCl] | 100% | 34.7 µmol/kg | 43.5 µmol/kg | 38.1 µmol/kg | 14,0 | – | – | –
6 | COc1c(C)cnc(C[S+]([O-])c2nccn2C)c1C (stereo not drawn) [XIV, 1-methyl-2-[2'-(3' ,5 '-dimethyl-4'-methoxy)pyridylmethylsulfinyl]imidazole] | 60% | 17.1 µmol/kg | 26.7 µmol/kg | 19.2 µmol/kg | 7,6 | – | – | –
7 | CN(C)c1ccccc1C[S+]([O-])c1nccn1-c1ccccc1F (stereo not drawn) [XLI, 1-(2'-fluorophenyl)-2-[2'-(N,N-dimethylanilyl)methylsulfinyl]imidazole] | 100% | 42.3 µmol/kg | 124 µmol/kg | 61.9 µmol/kg | 27,6 | – | – | –
8 | CN(C)c1ccccc1CSc1nc2cncnc2[nH]1 [XLV, 8-[2'-(N,N-dimethylanilyl)methylthio]purine] | 100% | 17.8 µmol/kg | 31.2 µmol/kg | 19.3 µmol/kg | 8,2 | – | – | –
9 | COc1ccc(C)nc1C[S+]([O-])c1ncnc2[nH]cnc12 (stereo not drawn) [XLVI, 6-[2'-(6'-methyl-3'-methoxypyridyl)methylsulfinyl]purine] | 100% | 33.1 µmol/kg | 52 µmol/kg | 45.8 µmol/kg | 15,8 | – | – | –
10 | c1ccc(N2CCOCC2)c(CSc2nc3cccnc3[nH]2)c1 [XLVII, 2-(2'-[1'-(4-morpholinyl)phenyl]methylthio)imidazo-[4,5-b]-pyridine] | 70 to 90% | 42.3 µmol/kg | 130 µmol/kg | 61.9 µmol/kg | 28,2 | – | – | –
11 | c1ccc2[nH]c(CSc3nc4cccnc4[nH]3)nc2c1 [XLVIII, 2-(2'-benzimidazolylmethylthio)imidazo-[4,5-b]-pyridine] | 50 to 60% | 164 µmol/kg | 522 µmol/kg | 235 µmol/kg | 110,9 | – | – | –
12 | Cn1ccnc1[S+]([O-])Cc1nc2cc(C(=O)c3ccccc3)ccc2[nH]1 (stereo not drawn) [XV, 1-methyl-2-[2'-(5'-benzoyl)benzimidazolylmethylsulfinyl]imidazole] | 50 to 60% | 0.6 µmol/kg | 3 µmol/kg | 0.7 µmol/kg | 0,5 | – | – | –
13 | COc1ccnc(C[S+]([O-])c2nccn2C)c1 (stereo not drawn) [XVI, 1-methyl-2-[2'-(4'-methoxypyridyl)methylsulfinyl]imidazole] | 40 to 60% | 0.3 µmol/kg | 2.3 µmol/kg | 0.3 µmol/kg | 0,3 | – | – | –
14 | Cn1ccnc1[S+]([O-])Cc1nc2ccccc2[nH]1 (stereo not drawn) [XVII, 1-methyl-2-[2'-benzimidazolylmethylsulfinyl)imidazole] | 70 to 90% | 84.4 µmol/kg | 134 µmol/kg | 109 µmol/kg | 39,7 | – | – | –
15 | Cn1ccnc1[S+]([O-])Cc1ccc2ccccc2n1 (stereo not drawn) [XVIII, 1-methyl-2-(2'-quinolylmethylsulfinyl)imidazole] | 100% | 36.9 µmol/kg | 40.3 µmol/kg | 39.4 µmol/kg | 14,0 | – | – | –
16 | COc1ccnc(CSc2nccn2-c2ccccc2)c1C [XXIII, 1-phenyl-2-[2'-(3'-methyl-4'-methoxypyridyl)methylthio]imidazole] | 70% | 125 µmol/kg | 125 µmol/kg | 110 µmol/kg | 43,4 | – | – | –
17 | CN(C)c1ccccc1CSc1nccn1-c1ccccc1Cl [XXXI, 1-(2'-clorophenyl)-2-[2'-(N,N-dimethylanilyl)methylthio]imidazole] | 90% | 30.1 µmol/kg | 67.2 µmol/kg | 55.1 µmol/kg | 18,4 | – | – | –
18 | CN(C)c1ccccc1CSc1nccn1-c1ccccc1F [XXXII, 1-(2'-fluorophenyl)-2-[2'-(N,N-dimethylanilyl)methylthio]imidazole] | 100% | 25.5 µmol/kg | 34.2 µmol/kg | 23.9 µmol/kg | 10,1 | – | – | –
19 | COc1ccccc1-n1ccnc1SCc1ccccc1N(C)C [XXXIII, 1-(2'-methoxyphenyl)-2-[2'-(N,N-dimethylanilyl)methylthio]imidazole] | 70 to 80% | 1.2 µmol/kg | 3 µmol/kg | 2 µmol/kg | 0,75 | – | – | –
20 | CN(C)c1ccccc1CSc1nccn1-c1ccc(Cl)cc1 [XXXIV, 1-(4'-chlorophenyl)-2-[2'-(N,N-dimethylanilyl)methylthio]imidazole. 2HCl] | 100% | 6.1 µmol/kg | 24.6 µmol/kg | 1.3 µmol/kg | 3,9 | – | – | –
21 | [O-][S+](Cc1nc2ccccc2[nH]1)c1nccn1-c1ccc(F)cc1 (stereo not drawn) [XXXIX, 1-(4'-fluorophenyl)-2-[2'-(benzimidazolyl)methylsulfinyl]-imidazole] | 80% | 139 µmol/kg | 300 µmol/kg | 165 µmol/kg | 72,8 | – | – | –
22 | CN(C)c1ccccc1CSc1nccn1-c1ccccc1C(F)(F)F [XXXV, 1-(2'-trifluoromethylphenyl)-2-[2'-(N,N-dimethylanilyl)methylthio]imidazole. 2HCl] | 100% | 8.3 µmol/kg | 24.9 µmol/kg | 5 µmol/kg | 4,6 | – | – | –
23 | c1ccc(-n2ccnc2SCc2ccc3ccccc3n2)cc1 [XXXVI, 1-phenyl-2-[2'-(quinolyl)methylthio]imidazole] | 60 to 70% | 50 µmol/kg | 120 µmol/kg | 80 µmol/kg | 30,1 | – | – | –
24 | COc1ccnc(C[S+]([O-])c2nccn2-c2cccc(F)c2)c1C (stereo not drawn) [XXXVII, 1-(3'-fluorophenyl)-2-[2'-(3'-methyl-4'-methoxypyridyl)methylsulphinyl]imidazole] | 60 to 80% | 73 µmol/kg | 80 µmol/kg | 80 µmol/kg | 28,1 | – | – | –
